Assay results published in US20250177383A1, “DI-CYCLOPROPYL BASED IL-17A MODULATORS AND USES THEREOF” (DICE ALPHA, INC., priority 2022, published 2025).

Legend:
IL-17A/A = biological target: T1, IL-17A/A (Homo sapiens, UniProt Q16552); assay: IL-17A/A HEK-Blue Cell Assay; type: cell-based; conditions: HEK-Blue IL-17 reporter cells, IL-17A/A stimulation, 20 hours, SEAP readout; read-out: IL17 AA HEK-5 pIC50 (converted)
T1 sequence (Q16552 24-155): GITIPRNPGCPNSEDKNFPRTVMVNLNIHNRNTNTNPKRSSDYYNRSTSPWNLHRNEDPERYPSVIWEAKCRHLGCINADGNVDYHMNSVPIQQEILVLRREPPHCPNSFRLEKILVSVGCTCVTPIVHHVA
In short: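 Cells co-expressing IL-17RA, IL-17RC and Act1 received titrated compound, top final 10 uM in 0.1% DMSO, immediately before IL-17A/A stimulation.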

IL-17A/F = biological target: T2, IL-17A/F (Homo sapiens, UniProt Q16552+Q96PD4); assay: IL-17A/F HEK-Blue Cell Assay; type: cell-based; conditions: HEK-Blue IL-17 reporter cells, IL-17A/F stimulation, 20 hours, SEAP readout; read-out: IL17AF HEK Blue pIC50 (converted)
T2 sequence (Q16552 24-155): T1 sequence (Q16552 24-155)
T2 sequence (Q96PD4 31-163): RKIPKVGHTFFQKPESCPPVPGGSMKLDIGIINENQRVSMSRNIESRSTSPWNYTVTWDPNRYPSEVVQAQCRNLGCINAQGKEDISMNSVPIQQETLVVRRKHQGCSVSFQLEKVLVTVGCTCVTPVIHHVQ

[1] = Microsomal stability, human liver microsomes; type: in vitro ADME; conditions: human liver microsomes 0.5 mg protein/mL, 1 μM test compound, NADPH, 37° C., 60 min; read-out: HLM Clint
Procedure: (§1) Test compound and control working solution preparation. 5 μL of a compound and control stock solution (10 mM in dimethyl sulfoxide (DMSO)) were diluted with 495 μL of acetonitrile (ACN).
(§2) NADPH cofactor preparation. The appropriate amount of NADPH powder was weighed and diluted into a 10 mM MgCl2 solution (working solution concentration: 10 mM; final concentration in reaction system: 1 mM). Materials: NADPH powder: β-Nicotinamide adenine dinucleotide phosphate reduced form, tetrasodium salt; NADPHA4Na (Vendor: Chem-Impex International, Cat. No. 00616).
(§3) Liver Microsome Preparation. The appropriate concentrations of microsome working solutions were prepared in 100 mM potassium phosphate buffer. Materials: Human Liver Microsomes (HLM) Cat No. 452117 and Lot No. 38295 (Corning); SD Rat Liver Microsomes (RLM) Cat No. R1000 and Lot No. 1910100 (Xenotech).
(§4) Stop solution preparation. Cold (4° C.) acetonitrile (ACN) containing 200 ng/mL tolbutamide and 200 ng/mL labetalol as internal standards (IS) were used as the stop solution.
(§5) Assay Procedure. Empty incubation plates (T60 and NCF60) were warmed for 10 mins prior to use. Liver microsomes were diluted to 0.56 mg/mL in 100 mM phosphate buffer. 445 uL microsome working solutions (0.56 mg/mL) were transferred into pre-warmed ‘Incubation’ plates T60 and NCF60, Then ‘Incubation’ plates T60 and NCF60 were pre-incubated for 10 min at 37° C. with constant shaking. 54 μL liver microsomes were transferred to the blank plate, then 6 μL NAPDH cofactor were added to the blank plate, followed by the addition 180 μL quenching solution to the blank plate. 5 μL compound working solution (100 μM) were added into ‘incubation’ plates (T60 and NCF60) containing microsomes and mixed thoroughly 3 times. To the NCF60 plate 50 μL of buffer were added and mixed 3 times thoroughly. Start timing; plate was incubated at 37° C. for 60 min while shaking. In ‘Quenching’ plate TO, were added 180 μL quenching solution and 6 μL NAPDH cofactor. Plate is chilled to prevent evaporation. The T60 plate, was mixed 3 times thoroughly, and immediately 54 μL of the mixture was removed for the 0-min time point to ‘Quenching’ plate. Then 44 μL NAPDH cofactor was added to the incubation plate (T60). Start timing; plate was incubated at 37° C. for 60 min while shaking. Final concentrations of each component in the incubation media: Microsome (0.5 mg protein/mL); Test compound (1 μM); control compound ([…]); ACN (0.99%); and DMSO (0.01%). At 5, 15, 30, 45, and 60 min, 180 μL quenching solution was added to ‘Quenching’ plates, mixed once, and serially transferred 60 μL of sample from T60 plate per time point to ‘Quenching’ plates. For the NCF60 plate, mix once and 60 μL of sample was transferred from the NCF60 incubation to ‘Quenching’ plate containing quenching solution at the 60-min time point (Start time 1:00:00 and End Time 0:00:00).
(§6) All sampling plates were shaken for 10 min, then centrifuged at 4000 rpm for 20 minutes at 4° C. 80 μL of supernatant were transferred into 240 μL HPLC water, and mixed by plate shaker for 10 min. Each bioanalysis plate was sealed and shaken for 10 minutes prior to LC-MS/MS analysis.

[2] = Microsomal stability, rat liver microsomes; type: in vitro ADME; conditions: SD rat liver microsomes 0.5 mg protein/mL, 1 μM test compound, NADPH, 37° C., 60 min; read-out: RLM Clint
Procedure: as §1, §2, §3, §4, §5, §6

Rat pharmacokinetics, PO = type: in vivo; conditions: male rat, PO 5 mg/kg oral gavage, plasma, Linear/log trapezoidal; read-out: Rat PO AUC0-t
Procedure: Formulations for PO. An appropriate amount of the test article is weighed and mixed with the appropriate volume of vehicle to get a clear solution or a uniform suspension, vortexing or sonication in water bath may used. Animals are dosed within four hours after the formulation is prepared.
Formulation samples are removed from each of the formulation solutions or suspensions, transferred into 1.5 mL of polypropylene microcentrifuge tubes and run dose validated by LC/UV or LC-MS/MS.
Dose administration. For PO dosing, the dose formulation is administered via oral gavage.
Blood Collection. Each blood collection (about 0.2 mL per time point) is performed from carotid artery cannula (CAC) of each animal into a pre-chilled commercial EDTA-K2 tubes as anti-coagulant, then placed on wet ice until centrifugation. Blood samples are processed for plasma by centrifugation at approximately 4° C., 3,200 g for 10 min. Plasma is collected respectively and a certain amount of plasma from rat is transferred into pre-labeled 96 well plate or polypropylene tubes, quick frozen over dry ice and kept at −60° C. or lower until LC-MS/MS analysis. After terminal collection, all plasmas are stored at approximately −80° C. freezer until final analysis.
Plasma concentration versus time data are plotted in graph and analyzed by non-compartmental approaches using the Phoenix WinNonlin 6.3 software program. Trapezoids: Before TMax (Linear); After Tmax (Log). Partial Area Interpolations: Before TMax (Linear); After Tmax (Log).

Row | SMILES | IC50 (IL-17A/A) [µM] | IC50 (IL-17A/F) [µM] | microsomal CLint at 1 μM [1] [µL/min/mg] | microsomal CLint at 1 μM [2] [µL/min/mg] | AUC(0-t) (Rat pharmacokinetics, PO) [ng·h/mL]
1 | CCn1nccc1C(=O)N[C@H](C(=O)Nc1ccc([C@H](C)[C@@H](NC(=O)COC)C(=O)N2CCN(C)C(CF)C2)cc1F)C(C1CC1)C1CC1 (single isomer, unassigned) [Compound 298] | < 0.01 | 0.01 to 0.1 | < 50 | < 9.6 | > 1000
2 | CCn1nccc1C(=O)N[C@H](C(=O)Nc1ccc([C@H](C)[C@@H](NC(=O)COC)C(=O)N2CCN(C)[C@H](C)C2)cc1F)C(C1CC1)C1CC1 [Compound 207] | < 0.01 | 0.01 to 0.1 | 50 to 150 | < 9.6 | > 1000
3 | CCC(=O)N[C@@H](C(=O)N1CCN(C)[C@H](C)C1)[C@@H](C)c1ccc(NC(=O)[C@@H](NC(=O)c2ccnn2CC)C(C2CC2)C2CC2)c(F)c1 [Compound 209] | < 0.01 | 0.01 to 0.1 | 50 to 150 | < 9.6 | 500 to 1000
4 | CCC(=O)N[C@@H](C(=O)N1C[C@@H](C)N(C)C[C@H]1C)[C@@H](C)c1ccc(NC(=O)[C@@H](NC(=O)c2ccnn2CC)C(C2CC2)C2CC2)c(F)c1 [Compound 212] | < 0.01 | 0.01 to 0.1 | < 50 | 9.6 to 20 | 500 to 1000
5 | CCC(=O)N[C@@H](C(=O)N1CCN(C)[C@@H](C)C1)[C@@H](C)c1ccc(NC(=O)[C@@H](NC(=O)c2ccnn2CC)C(C2CC2)C2CC2)c(F)c1 [Compound 213] | < 0.01 | 0.01 to 0.1 | 50 to 150 | < 9.6 | 500 to 1000
6 | CCc1nonc1C(=O)N[C@H](C(=O)Nc1ccc([C@H](C)[C@@H](NC(C)=O)C(=O)N2CCN(C)[C@H](C)C2)cc1F)C(C1CC1)C1CC1 [Compound 214] | < 0.01 |  | 50 to 150 | 9.6 to 20 | < 500
7 | CCC(=O)N[C@@H](C(=O)N1CCN(C)[C@H](C)C1)[C@@H](C)c1ccc(NC(=O)[C@@H](NC(=O)c2ccnn2CCF)C(C2CC2)C2CC2)c(F)c1 [Compound 217] | < 0.01 |  | < 50 | < 9.6 | < 500
8 | CCC(=O)N[C@@H](C(=O)N1C[C@@H](C)N(C)[C@@H](C)C1)[C@@H](C)c1ccc(NC(=O)[C@@H](NC(=O)c2ccnn2CC)C(C2CC2)C2CC2)c(F)c1 [Compound 223] | < 0.01 |  | 50 to 150 | 9.6 to 20 | < 500
9 | CCn1nccc1C(=O)N[C@H](C(=O)Nc1ccc([C@H](C)[C@@H](NC(=O)N(C)C2CC2)C(=O)N2CCN(C)CC2)cc1F)C(C1CC1)C1CC1 [Compound 225] | < 0.01 |  | 50 to 150 | > 20 | < 500
